Data on four compounds can be found in US8796273B2, “Compound for the treatment of enteroviruses” (priority 2010, dated 2014).

Bounds are passed on as bounds.

The test system of experiment [1] is Poliovirus 1 (PV1). Put plainly: microbe, parasite or virus in culture. The class given is cell-based, Human enterovirus C. Conditions: Enterovirus C, read-out: EC50, replication of Poliovirus 1 (PV1).
The test system of experiment [2] is Enterovirus 71 (EV71). Put plainly: microbe, parasite or virus in culture. The class given is cell-based, Human enterovirus A. The following applies: Enterovirus A, EV71, read-out: EC50, replication of Enterovirus 71 (EV71).

For `CC(C)S(=O)(=O)n1c(N)nc2ccc(/C(=N/O)c3ccccc3)cc21` [Enviroxime], the EC50 (usually the concentration needed to bring the measured effect to its halfway point) in experiment [1] stood at 790 ± 130 nM; in experiment [2], 450 ± 120 nM.
Consider `COc1ccc(OCc2ccc(COc3c(Cl)cccc3Cl)cc2)c(Cl)c1` [Compound V-073, V-073], for which the EC50 was 26 ± 23 nM in experiment [1] and greater than 300000 nM in experiment [2].
In the same order, the values of `Cc1cc(CCCOc2c(C)cc(-c3noc(C(F)(F)F)n3)cc2C)on1` [Pleconaril] are greater than 300000 nM and greater than 300000 nM.
In the same order, the values of `CCOC(=O)/C=C/[C@H](C[C@@H]1CCNC1=O)NC(=O)[C@@H](CC(=O)[C@@H](NC(=O)c1cc(C)on1)C(C)C)Cc1ccc(F)cc1` [Rupintrivir] are 4500 ± 360 nM and 900 ± 70 nM.
